ChEMBL document CHEMBL1201862, “PubChem BioAssay data set” (2004)
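Interpolation was linear, between the two tested concentrations surrounding the appropriate level; five concentrations were tested over 48 hours in 96-well plates. GI50 = concentration required for 50% inhibition of growth.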 Calls of active or inactive are those of the source. No stated cut-off is given here; in the data, active = GI50 up to about 1.1 µM and inactive = higher.

Columns and labels:
Experiment in all cases: inhibition of tumour cell growth, NCI panel, 48 h
Malme-3M = tested on: Malme-3M
ACHN = tested on: ACHN
SNB-19 = tested on: SNB-19
MDA-MB-231 = tested on: MDA-MB-231
DU-145 = tested on: DU-145
HCT-116 = tested on: HCT-116
UACC-257 = tested on: UACC-257
HOP-62 = tested on: HOP-62
SK-MEL-2 = tested on: SK-MEL-2
OVCAR-5 = tested on: OVCAR-5
PC-3 = tested on: PC-3
K562 = tested on: K562
IGROV-1 = tested on: IGROV-1
KM12 = tested on: KM12
NCI-H522 = tested on: NCI-H522
TK-10 = tested on: TK-10
NCI-H23 = tested on: NCI-H23
MDA-MB-435 = tested on: MDA-MB-435
OVCAR-4 = tested on: OVCAR-4
UO-31 = tested on: UO-31
CAKI-1 = tested on: CAKI-1
SK-MEL-5 = tested on: SK-MEL-5
MOLT-4 = tested on: MOLT-4
MDA-N = tested on: MDA-N
HCC 2998 = tested on: HCC 2998
SF-539 = tested on: SF-539
SK-MEL-28 = tested on: SK-MEL-28
OVCAR-8 = tested on: OVCAR-8
A549 = tested on: A549
SN12C = tested on: SN12C
EKVX = tested on: EKVX
SNB-75 = tested on: SNB-75
SR = tested on: SR
HT-29 = tested on: HT-29
NCI/ADR-RES = tested on: NCI/ADR-RES
T47D = tested on: T47D
CCRF-CEM = tested on: CCRF-CEM
U-251 = tested on: U-251
NCI-H226 = tested on: NCI-H226
NCI-H460 = tested on: NCI-H460
SF-295 = tested on: SF-295
RPMI-8226 = tested on: RPMI-8226
UACC-62 = tested on: UACC-62
A498 = tested on: A498
786-0 = tested on: 786-0
COLO 205 = tested on: COLO 205
HCT-15 = tested on: HCT-15
HL-60 = tested on: HL-60
Hs-578T = tested on: Hs-578T
M14 = tested on: M14
RXF 393 = tested on: RXF 393
HOP-92 = tested on: HOP-92
SW-620 = tested on: SW-620
SF-268 = tested on: SF-268
MCF7 = tested on: MCF7
OVCAR-3 = tested on: OVCAR-3
SK-OV-3 = tested on: SK-OV-3
LOX IMVI = tested on: LOX IMVI
BT-549 = tested on: BT-549

SMILES: C=CCOC(=O)N1c2ccc(O)cc2[C@@]23O[C@@]24[C@@H]1C#C/C=C\C#C[C@]3(O)C(=O)C[C@@H]4C
- GI50 (Malme-3M): 98.2 µM (inactive)
- GI50 (ACHN): 28.2 µM (inactive)
- GI50 (SNB-19): > 100 µM (inactive)
- GI50 (MDA-MB-231): > 100 µM (inactive)
- GI50 (DU-145): > 100 µM (inactive)
- GI50 (HCT-116): 51.5 µM (inactive)
- GI50 (UACC-257): > 100 µM (inactive)
- GI50 (HOP-62): > 100 µM (inactive)
- GI50 (SK-MEL-2): 77.8 µM (inactive)
- GI50 (OVCAR-5): 28.2 µM (inactive)
- GI50 (PC-3): 34.8 µM (inactive)
- GI50 (K562): 59.7 µM (inactive)
- GI50 (IGROV-1): 62.8 µM (inactive)
- GI50 (KM12): > 100 µM (inactive)
- GI50 (NCI-H522): 40.1 µM (inactive)
- GI50 (TK-10): > 100 µM (inactive)
- GI50 (NCI-H23): 22.7 µM (inactive)
- GI50 (MDA-MB-435): 27.4 µM (inactive)
- GI50 (OVCAR-4): 0.0231 µM (active)
- GI50 (UO-31): 54.3 µM (inactive)
- GI50 (CAKI-1): > 100 µM (inactive)
- GI50 (SK-MEL-5): 21.5 µM (inactive)
- GI50 (MOLT-4): 14.8 µM (inactive)
- GI50 (MDA-N): > 100 µM (inactive)
- GI50 (HCC 2998): > 100 µM (inactive)
- GI50 (SF-539): 83.8 µM (inactive)
- GI50 (SK-MEL-28): > 100 µM (inactive)
- GI50 (OVCAR-8): 47.1 µM (inactive)
- GI50 (A549): 32 µM (inactive)
- GI50 (SN12C): 54.2 µM (inactive)
- GI50 (EKVX): 78 µM (inactive)
- GI50 (SNB-75): 27.2 µM (inactive)
- GI50 (SR): 15 µM (inactive)
- GI50 (HT-29): 43.5 µM (inactive)
- GI50 (NCI/ADR-RES): 65.5 µM (inactive)
- GI50 (T47D): > 100 µM (inactive)
- GI50 (CCRF-CEM): 28.4 µM (inactive)
- GI50 (U-251): 95.9 µM (inactive)
- GI50 (NCI-H226): 34.4 µM (inactive)
- GI50 (NCI-H460): 11.5 µM (inactive)
- GI50 (SF-295): > 100 µM (inactive)
- GI50 (RPMI-8226): 25.6 µM (inactive)
- GI50 (UACC-62): 99.8 µM (inactive)
- GI50 (A498): 42.8 µM (inactive)
- GI50 (786-0): 13.9 µM (inactive)
- GI50 (COLO 205): 36.6 µM (inactive)
- GI50 (HCT-15): > 100 µM
- GI50 (HL-60): 37.8 µM (inactive)
- GI50 (Hs-578T): 47.5 µM (inactive)
- GI50 (M14): 39.7 µM (inactive)
- GI50 (RXF 393): > 100 µM (inactive)
- GI50 (HOP-92): 72.9 µM (inactive)
- GI50 (SW-620): > 100 µM (inactive)
- GI50 (SF-268): 79.1 µM (inactive)
- GI50 (MCF7): 61.8 µM (inactive)

SMILES: Oc1ccc(O)c(Cc2ccccc2)c1
- GI50 (Malme-3M): 26.4 µM (inactive)
- GI50 (ACHN): 14.8 µM (inactive)
- GI50 (SNB-19): 53.1 µM (inactive)
- GI50 (MDA-MB-231): 19 µM (inactive)
- GI50 (DU-145): 6.27 µM (inactive)
- GI50 (UACC-257): 25.9 µM (inactive)
- GI50 (HOP-62): 27.9 µM (inactive)
- GI50 (SK-MEL-2): 18.7 µM (inactive)
- GI50 (OVCAR-5): 57.5 µM (inactive)
- GI50 (PC-3): 27.9 µM (inactive)
- GI50 (OVCAR-3): 1.07 µM (active)
- GI50 (K562): 10.6 µM (inactive)
- GI50 (KM12): 19.1 µM (inactive)
- GI50 (TK-10): 21.7 µM (inactive)
- GI50 (NCI-H23): 26.4 µM (inactive)
- GI50 (MDA-MB-435): 19.5 µM (inactive)
- GI50 (OVCAR-4): 14.2 µM (inactive)
- GI50 (UO-31): 15.1 µM (inactive)
- GI50 (SK-MEL-5): 17.3 µM (inactive)
- GI50 (MOLT-4): 6.7 µM (inactive)
- GI50 (MDA-N): 18 µM (inactive)
- GI50 (HCC 2998): 93.1 µM (inactive)
- GI50 (SF-539): 10.7 µM (inactive)
- GI50 (SK-MEL-28): 33.7 µM (inactive)
- GI50 (OVCAR-8): 15.4 µM (inactive)
- GI50 (A549): 37.2 µM (inactive)
- GI50 (SN12C): 18.4 µM (inactive)
- GI50 (EKVX): 38.5 µM (inactive)
- GI50 (SR): 2.32 µM (inactive)
- GI50 (HT-29): 37 µM (inactive)
- GI50 (NCI/ADR-RES): 16.4 µM (inactive)
- GI50 (SK-OV-3): 32.8 µM (inactive)
- GI50 (T47D): 0.0887 µM (active)
- GI50 (CCRF-CEM): 7.41 µM (inactive)
- GI50 (U-251): 20.1 µM (inactive)
- GI50 (NCI-H226): 19.6 µM (inactive)
- GI50 (NCI-H460): 20.7 µM (inactive)
- GI50 (SF-295): 56.1 µM (inactive)
- GI50 (RPMI-8226): 3.61 µM (inactive)
- GI50 (UACC-62): 20.2 µM (inactive)
- GI50 (A498): 43.9 µM (inactive)
- GI50 (786-0): 14.7 µM (inactive)
- GI50 (LOX IMVI): 18.6 µM (inactive)
- GI50 (COLO 205): 17.4 µM (inactive)
- GI50 (HCT-15): 13.6 µM
- GI50 (HL-60): 1.52 µM (inactive)
- GI50 (Hs-578T): 31.9 µM (inactive)
- GI50 (M14): 23.5 µM (inactive)
- GI50 (HOP-92): 16.3 µM (inactive)
- GI50 (SW-620): 21.3 µM (inactive)
- GI50 (SF-268): 12.5 µM (inactive)
- GI50 (MCF7): 15 µM (inactive)

SMILES: C=C(C)[C@@H]1CC[C@]2(COC(C)=O)CC[C@]3(C)[C@H](CC[C@@H]4[C@@]5(C)CC[C@H](OC(C)=O)C(C)(C)[C@@H]5CC[C@]43C)[C@@H]12 [BETULIN DIACETATE]
- GI50 (ACHN): > 50 µM (inactive)
- GI50 (SNB-19): > 50 µM (inactive)
- GI50 (HCT-116): > 50 µM (inactive)
- GI50 (UACC-257): > 50 µM (inactive)
- GI50 (HOP-62): > 50 µM (inactive)
- GI50 (SK-MEL-2): > 50 µM (inactive)
- GI50 (PC-3): > 50 µM (inactive)
- GI50 (OVCAR-3): 3.01 µM (inactive)
- GI50 (K562): > 50 µM (inactive)
- GI50 (IGROV-1): > 50 µM (inactive)
- GI50 (NCI-H522): > 50 µM (inactive)
- GI50 (BT-549): > 50 µM (inactive)
- GI50 (NCI-H23): > 50 µM (inactive)
- GI50 (MDA-MB-435): > 50 µM (inactive)
- GI50 (OVCAR-4): > 50 µM (inactive)
- GI50 (UO-31): > 50 µM (inactive)
- GI50 (SK-MEL-5): > 50 µM (inactive)
- GI50 (MOLT-4): > 50 µM (inactive)
- GI50 (MDA-N): > 50 µM (inactive)
- GI50 (HCC 2998): 0.857 µM (active)
- GI50 (SF-539): > 50 µM (inactive)
- GI50 (SK-MEL-28): > 50 µM (inactive)
- GI50 (OVCAR-8): > 50 µM (inactive)
- GI50 (A549): > 50 µM (inactive)
- GI50 (SN12C): > 50 µM (inactive)
- GI50 (SNB-75): > 50 µM (inactive)
- GI50 (SR): > 50 µM (inactive)
- GI50 (HT-29): > 50 µM (inactive)
- GI50 (NCI/ADR-RES): > 50 µM (inactive)
- GI50 (SK-OV-3): > 50 µM (inactive)
- GI50 (CCRF-CEM): > 50 µM (inactive)
- GI50 (U-251): > 50 µM (inactive)
- GI50 (NCI-H226): > 50 µM (inactive)
- GI50 (RPMI-8226): > 50 µM (inactive)
- GI50 (UACC-62): > 50 µM (inactive)
- GI50 (A498): > 50 µM (inactive)
- GI50 (786-0): > 50 µM (inactive)
- GI50 (LOX IMVI): > 50 µM (inactive)
- GI50 (COLO 205): > 50 µM (inactive)
- GI50 (HCT-15): > 50 µM
- GI50 (HL-60): > 33.1 µM (inactive)
- GI50 (Hs-578T): > 50 µM (inactive)
- GI50 (M14): > 50 µM (inactive)
- GI50 (RXF 393): 0.0385 µM (active)
- GI50 (HOP-92): > 31.6 µM (inactive)
- GI50 (SW-620): > 50 µM (inactive)
